Source: patent US20130053430A1, “MODULATION OF CETP EXPRESSION” (Isis Pharmaceuticals, Inc., priority 2010, published 2013)
e = 2'-O-(2-methoxyethyl) (MOE); d = 2'-deoxy (DNA)

What was measured:
ABCA1 = assay: Liver ABCA1 mRNA expression (Example 9); type: in vivo, mice; settings: percentage increase or decrease compared to PBS control, s.c. 6 weeks
Procedure: Another group received subcutaneous injections of control oligonucleotide ISIS 141923 at a dose of 50 mg/kg/week for 6 weeks. One group of mice received subcutaneous injections of PBS for 6 weeks. The PBS-injected group served as the control group to which treatment groups were compared.
Liver RNA was isolated for real-time PCR analysis of ABCA1, ApoAI, and SR-B1. ATP-binding cassette transporter ABCA1 (member 1 of human transporter sub-family ABCA), also known as the cholesterol efflux regulatory protein (CERP) is a protein which in humans is encoded by the ABCA1 gene (Luciani, M. F. et al., Genomics. 1994. 21: 150-9). This transporter is a major regulator of cellular cholesterol and phospholipid homeostasis. Apolipoprotein A-I is a protein that in humans is encoded by the APOA1 gene (Breslow, J. L. et al., Proc. Natl. Acad. Sci. USA 1982. 79: 6861-5). Apolipoprotein A-I is the major protein component of HDL in plasma. The protein promotes cholesterol efflux from tissues to the liver for excretion. Scavenger receptor class B, type I (SR-BI) is an integral membrane protein found in numerous cell types/tissues, including the liver and adrenal (Acton, S. L. et al., J. Biol. Chem. 1994. 269: 21003-21009). It is best known for its role in facilitating the uptake of cholesteryl esters from high-density lipoproteins in the liver. Therefore, all three genes have a role in HDL regulation.
The primer probe set RTS1204 (forward sequence […], designated herein as SEQ ID NO: 122, reverse sequence […], designated herein as SEQ ID NO: 123, probe sequence AGGCCCAGACCTGTAAAGGCGAAGX, with X a fluorophore, designated herein as SEQ ID NO: 124) was used to measure abca1 levels. The primer probe set RTS14737 (forward sequence […], designated herein as SEQ ID NO: 125, reverse sequence […], designated herein as SEQ ID NO: 126, probe sequence CTGCAGGAACGGCTGGGCCCX, with X a fluorophore, designated herein as SEQ ID NO: 127) was used to measure apoA1 levels. The primer probe set mSRB-1 (forward sequence […], designated herein as SEQ ID NO: 128, reverse sequence ATGCGACTTGTCAGGCTGG, designated herein as SEQ ID NO: 129, probe sequence CGTGGAGAACCGCAGCCTCCATTX, with X a fluorophore, designated herein as SEQ ID NO: 130) was used to measure sr-b1 levels. The results are presented in Table 44 as percentage increase or decrease in the respective expression levels compared to the PBS control. Both primer probe sets produced similar results. The RNA expression levels were normalized to murine Cyclophilin. Treatment with ISIS 349517 caused an increase in ApoA1 and SR-B1 levels.

human CETP mRNA [1] = assay: Antisense inhibition of human CETP mRNA in primary hepatocytes from huCETP transgenic mice (Example 4); type: cell-based, mouse; settings: cytofectin, ~24 hours
In short: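 Primary hepatocytes from human CETP transgenic mice, 17,500 cells/well, transfected by cytofectin with 100 nM or 200 nM antisense oligonucleotide. After about 24 h, CETP mRNA quantified by real-time PCR, normalised to GAPDH, as percent inhibition versus untreated cells.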

human CETP mRNA [2] = assay: Liver CETP mRNA in huCETP transgenic mice, normal chow (Example 5); type: in vivo; settings: 50 mg/kg i.p. twice per week for 6 weeks, relative to PBS control
Procedure: Male huCETP transgenic mice were maintained on a 12-hour light/dark cycle and fed ad libitum normal Purina mouse chow. Animals were acclimated for at least 7 days in the research facility before initiation of the experiment. Antisense oligonucleotides (ASOs) were prepared in buffered saline (PBS) and sterilized by filtering through a 0.2 micron filter. Oligonucleotides were dissolved in 0.9% PBS for injection.
(§1) The mice were divided into five treatment groups. The first four groups received intraperitoneal injections of ISIS 349511, ISIS 349512, ISIS 349515, or ISIS 349517 at a dose of 50 mg/kg twice per week for 6 weeks. The fifth group received intraperitoneal injections of saline twice weekly for 6 weeks.
Twenty four hours after the final dose, the animals were sacrificed and liver tissue was isolated. Liver RNA was isolated for real-time PCR analysis of CETP. Two primer probe sets, hCETP (forward sequence […], designated herein as SEQ ID NO: 118; reverse sequence […], designated herein as SEQ ID NO: 119; probe sequence TGCGGACCGATGCCCCTGAX, designated herein as SEQ ID NO: 120) and hCETP2_LTS00182 (forward sequence […], designated herein as SEQ ID NO: 38; reverse sequence GGCTCACGCCTTTGCTGTT, designated herein as SEQ ID NO: 39: probe sequence CGGCTCGAGGTAGTGTTTACAGCCCTCX, designated herein as SEQ ID NO: 40), were used. These primer probe sets target the CETP mRNA transcript at different regions. As presented in Table 7, treatment with antisense oligonucleotides reduced CETP mRNA expression. The primer probe sets were used individually and collectively to measure CETP mRNA expression and gave similar results in all three cases. The RNA expression levels were normalized to murine Cyclophilin, a house-keeping gene, which is constitutively expressed. Cyclophilin levels were measured using the primer probe set described in Table 2. The results are expressed as percent inhibition of CETP mRNA, relative to the PBS control.

[3] = Plasma glucose in huCETP transgenic mice (Example 5); type: in vivo; settings: 50 mg/kg i.p. twice per week
Procedure: as §1
Plasma glucose values were determined using a Beckman Glucose Analyzer II (Beckman Coulter) by a glucose oxidase method (Lott, J. A. et al., Clin. Chem. 21: 1754-1760, 1975).

CETP protein = assay: Plasma CETP protein by ELISA (Example 8); type: in vivo, human; settings: huCETP transgenic mice, Western diet; 25 mg/kg s.c. twice per week for 2 weeks; relative to PBS control
Procedure: The mice were divided into two groups of 4-6 mice each.
Plasma CETP protein levels were measured by ELISA (Alpco). […] The results are expressed as percent inhibition of CETP protein, relative to the PBS control.

Substance | Percent inhibition of liver mRNA expression, ABCA1 (ABCA1; Dose 50 mg/kg/wk) | Percent inhibition of human CETP mRNA (human CETP mRNA [1]; 100 nM) | Percent inhibition of human CETP mRNA (human CETP mRNA [1]; 200 nM) | Percent inhibition of liver CETP mRNA expression, Combined primer probe sets (human CETP mRNA [2]) | Percent inhibition of liver CETP mRNA expression, Primer probe set hCETP (human CETP mRNA [2]) | Percent inhibition of liver CETP mRNA expression, Primer probe set hCETP2_LTS00182 (human CETP mRNA [2]) | Glucose levels ([3]; week 3) | Glucose levels ([3]; week 6) | Percent inhibition of plasma CETP protein levels (CETP protein) | Percent inhibition of liver mRNA expression, ABCA1 (ABCA1; Dose 1.5 mg/kg/wk) | Percent inhibition of liver mRNA expression, ABCA1 (ABCA1; Dose 5 mg/kg/wk) | Percent inhibition of liver mRNA expression, ABCA1 (ABCA1; Dose 15 mg/kg/wk)
ISIS 141923: CCTTCCCTGAAGGTTCCTCC, 5-10-5 MOE gapmer, a control oligonucleotide which has no known murine target (sugars from the 5' end e5 d10 e5, backbone and methylation of C not given here) [reference compound] | +16% |  |  |  |  |  |  |  |  |  |  | 
ISIS 349511: 5-10-5 MOE gapmer CCCGACCTCCTTGGAGACTT (sugars from the 5' end e5 d10 e5, backbone and methylation of C not given here) |  | 74% | 95% | 88% | 90% | 86% | 286 mg/dL | 245 mg/dL |  |  |  | 
ISIS 349517: 5-10-5 MOE gapmer CAGCACTTTAATGCCAGTGG (sugars from the 5' end e5 d10 e5, backbone and methylation of C not given here) | −15% | 85% | 98% | 97% | 99% | 95% | 333 mg/dL | 254 mg/dL | 96% | +6% | +15% | −6%
